Like-named read-outs stand apart in the source and are kept apart here.
Legend:
[1] = tested on: S. aureus; test: MIC by serial two-fold agar dilution (Mueller-Hinton agar), S. aureus; format: cell-based; details: Staphylococcus aureus
In short: (§1)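 Read-out is the minimum inhibitory concentration from agar plates (Mueller-Hinton) carrying serial two-fold drug dilutions, inoculated via Steers' apparatus. Strains: 31 test organisms in primary screening, 61 P. aeruginosa isolates for secondary evaluation.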

[2] = tested on: E. coli; test: MIC by serial two-fold agar dilution (Mueller-Hinton agar), E. coli; format: cell-based; details: Escherichia coli, read-out: MIC
In short: as §1

[3] = tested on: K. pneumoniae; test: MIC by serial two-fold agar dilution (Mueller-Hinton agar), K. pneumoniae; format: cell-based; details: Klebsiella pneumoniae, K. pneumoniae A9977, Table 6
In short: (§2)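 Serial two-fold agar dilution on Mueller-Hinton agar, inoculated with a Steers' apparatus. Primary screening used 31 test organisms; secondary evaluation used 61 Pseudomonas aeruginosa strains. Relative activity values are mean % of MIC against sulbenicillin.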

[4] = tested on: Klebsiella sp.; test: MIC by serial two-fold agar dilution (Mueller-Hinton agar), Klebsiella sp.; format: cell-based; details: Klebsiella sp. A20452, Table 6; read-out: MIC
In short: as §2

[5] = tested on: P. vulgaris; test: MIC by serial two-fold agar dilution (Mueller-Hinton agar), P. vulgaris; format: cell-based; details: Proteus vulgaris; P. vulgaris A9539, Table 6; read-out: MIC
In short: as §2

[6] = tested on: P. aeruginosa; test: MIC by serial two-fold agar dilution (Mueller-Hinton agar), P. aeruginosa, primary screening; format: cell-based; details: Pseudomonas aeruginosa, read-out: MIC
In short: as §1

[7] = tested on: Pseudomonas aeruginosa; test: MIC by agar dilution against 61 strains of Pseudomonas aeruginosa, secondary evaluation; format: cell-based; details: for MIC: Pseudomonas aeruginosa
In short: as §1

[8] = tested on: Pseudomonas (6 strains); test: Mean % relative activity (MIC) vs sulbenicillin, Pseudomonas (6 strains); format: cell-based; details: P. aerug. (6 strains), Table 5
Protocol: Minimum inhibitory concentrations (MIC) of BB-S520 were determined by serial two-fold agar dilution method using Steers' apparatus on Meuller-Hinton agar plate against 31 test organisms for the primary screening and also against 61 strains of Pseudomonas aeruginosa for the secondary evaluation. The results are shown in Table 1 and Table 2 along with those of BB-S514 and sulbenicillin.
Minimum inhibitory concentrations (MIC) of cephalosporins in the present study were determined by serial two-fold agar dilution method using Steers' apparatus on Mueller-Hinton agar plate against 31 test organisms for the primary screening and also against 61 strains of Pseudomonas aeruginosa for the secondary evaluation.

[9] = tested on: S. aureus Smith; test: Median curative dose in mice, infection with S. aureus Smith; format: in vivo; details: Staphylococcus aureus, sc; mice, S. aureus Smith infection, Table 5; read-out: PD50
Description: (§3) Median Curative Dose in Mgm./Kg.
(§4) Upon Subcutaneous Injection in Mice

[10] = tested on: Ps. aeruginosa A9843; test: Median curative dose in mice, infection with Ps. aeruginosa; format: in vivo; details: Pseudomonas aeruginosa, A9843, sc, mice, P. aerug. A9843 infection, Table 5; read-out: PD50
Description: as §3, §4

NC(=O)OCC1=C(C(=O)O)N2C(=O)C(NC(=O)[C@H](NC(=O)c3cnc4cccnc4c3O)c3ccc(O)cc3)C2SC1 (single isomer, unassigned) [BB-S530, Sodium 7-[D-(-)-α-(4-hydroxy-1,5-naphthyridine-3-carboxamido)-α-(p-hydroxyphenyl)acetamido]-3-carbamoyloxymethyl-3-cephem-4-carboxylate]
MIC ([1]; S. aureus BX-1633 A9606, Table 6, read-out: MIC): 3.1 µg/mL | MIC ([1]; S. aureus Smith A9537, Table 6, read-out: MIC): 1.6 µg/mL | MIC ([1]; S. aureus Smith A15907, Table 6): 25 µg/mL | MIC ([1]; S. aureus Smith A20239, Table 6, read-out: MIC): 3.1 µg/mL | MIC ([1]; S. aureus Smith A20240, Table 6, read-out: MIC): 3.1 µg/mL | MIC ([1]; S. aureus Smith A20701, Table 6, read-out: MIC): 25 µg/mL | MIC ([2]; E. coli A9435, Table 6): 3.1 µg/mL | MIC ([2]; E. coli A9844, Table 6): 0.4 µg/mL | MIC ([2]; E. coli A10664, Table 6): 0.2 µg/mL | MIC ([2]; E. coli A20366, Table 6): > 100 µg/mL | MIC ([2]; E. coli A20520, Table 6): 3.1 µg/mL | MIC ([2]; E. coli A20732, Table 6): 3.1 µg/mL | MIC ([2]; E. coli A20898, Table 6): 100 µg/mL | MIC ([2]; E. coli Juhl A15119, Table 6): 1.6 µg/mL | MIC ([2]; E. coli NIHJ, Table 6): 1.6 µg/mL | MIC [3]: 1.6 µg/mL | MIC [4]: 1.6 µg/mL | MIC [5]: > 100 µg/mL | MIC ([6]; P. aeruginosa A9843, Table 6): 1.6 µg/mL | MIC ([6]; P. aeruginosa A9930, Table 6): 0.8 µg/mL | MIC ([6]; P. aeruginosa A15150, Table 6): 1.6 µg/mL | MIC ([6]; P. aeruginosa A20229, Table 6): 1.6 µg/mL | MIC ([6]; P. aeruginosa A20717, Table 6): 3.1 µg/mL | Rel. Act. (SBPC=100%) ([7]; 61 strains of Pseudomonas aeruginosa, Table 7): 1694% | Mean % Relative Activity (SPBC = 100%) ([7]; P. aerug. (61 strains), Table 5): 1694% | MIC ([7]; 61 strains of Pseudomonas aeruginosa, Table 7, read-out: Geometric Mean of MIC): 1.4 µg/mL | MIC ([7]; BBRI Pa-No. 1, D15, Table 7, read-out: MIC): 6.3 µg/mL | MIC ([7]; BBRI Pa-No. 2, VA, Table 7, read-out: MIC): 1.6 µg/mL | MIC ([7]; BBRI Pa-No. 3, 1449VA, Table 7, read-out: MIC): 0.8 µg/mL | MIC ([7]; BBRI Pa-No. 4, H9 D113, Table 7, read-out: MIC): 1.6 µg/mL | MIC ([7]; BBRI Pa-No. 5, N4865KC, Table 7, read-out: MIC): 1.6 µg/mL | MIC ([7]; BBRI Pa-No. 6, No. 5, Table 7, read-out: MIC): 6.3 µg/mL | MIC ([7]; BBRI Pa-No. 7, Table 7, read-out: MIC): 1.6 µg/mL | MIC ([7]; BBRI Pa-No. 8, Table 7, read-out: MIC): 1.6 µg/mL | MIC ([7]; BBRI Pa-No. 9, Yale, Table 7, read-out: MIC): 1.6 µg/mL | MIC ([7]; BBRI Pa-No. 10, Table 7, read-out: MIC): 100 µg/mL | MIC ([7]; BBRI Pa-No. 11, Table 7, read-out: MIC): 1.6 µg/mL | MIC ([7]; BBRI Pa-No. 12, Table 7, read-out: MIC): 1.6 µg/mL | MIC ([7]; BBRI Pa-No. 14, Table 7, read-out: MIC): 0.8 µg/mL | MIC ([7]; BBRI Pa-No. 15, Table 7, read-out: MIC): 3.1 µg/mL | MIC ([7]; BBRI Pa-No. 16, No. 130, Table 7, read-out: MIC): < 0.2 µg/mL | MIC ([7]; BBRI Pa-No. 17, H6 D114, Table 7, read-out: MIC): 12.5 µg/mL | MIC ([7]; BBRI Pa-No. 18, H8 D121, Table 7, read-out: MIC): 0.4 µg/mL | MIC ([7]; BBRI Pa-No. 19, Table 7, read-out: MIC): 0.4 µg/mL | MIC ([7]; BBRI Pa-No. 20, Table 7, read-out: MIC): 1.6 µg/mL | MIC ([7]; BBRI Pa-No. 21, Table 7, read-out: MIC): 1.6 µg/mL | MIC ([7]; BBRI Pa-No. 23, Table 7, read-out: MIC): 1.6 µg/mL | MIC ([7]; BBRI Pa-No. 24, Table 7, read-out: MIC): 50 µg/mL | MIC ([7]; BBRI Pa-No. 25, Table 7, read-out: MIC): 0.8 µg/mL | MIC ([7]; BBRI Pa-No. 26, Ps32, Table 7, read-out: MIC): 6.3 µg/mL | MIC ([7]; BBRI Pa-No. 28, CPH1C527/72, Table 7, read-out: MIC): 1.6 µg/mL | MIC ([7]; BBRI Pa-No. 29, D122, Table 7, read-out: MIC): 0.8 µg/mL | MIC ([7]; BBRI Pa-No. 30, Table 7, read-out: MIC): 0.8 µg/mL | MIC ([7]; BBRI Pa-No. 31, Table 7, read-out: MIC): < 0.2 µg/mL | MIC ([7]; BBRI Pa-No. 32, Table 7, read-out: MIC): 0.8 µg/mL | MIC ([7]; BBRI Pa-No. 33, Table 7, read-out: MIC): 0.8 µg/mL | MIC ([7]; BBRI Pa-No. 34, Table 7, read-out: MIC): 0.4 µg/mL | MIC ([7]; BBRI Pa-No. 35, Table 7, read-out: MIC): 1.6 µg/mL | MIC ([7]; BBRI Pa-No. 36, Table 7, read-out: MIC): < 0.2 µg/mL | MIC ([7]; BBRI Pa-No. 37, Table 7, read-out: MIC): 1.6 µg/mL | MIC ([7]; BBRI Pa-No. 38, Table 7, read-out: MIC): 3.1 µg/mL | MIC ([7]; BBRI Pa-No. 39, Table 7, read-out: MIC): 0.8 µg/mL | MIC ([7]; BBRI Pa-No. 41, Table 7, read-out: MIC): 1.6 µg/mL | MIC ([7]; BBRI Pa-No. 42, Table 7, read-out: MIC): 1.6 µg/mL | MIC ([7]; BBRI Pa-No. 43, Table 7, read-out: MIC): 1.6 µg/mL | MIC ([7]; BBRI Pa-No. 44 (unnamed strain), Table 7, read-out: MIC): 1.6 µg/mL | MIC ([7]; BBRI Pa-No. 51, Table 7, read-out: MIC): 0.8 µg/mL | MIC ([7]; BBRI Pa-No. 52, Table 7, read-out: MIC): 1.6 µg/mL | MIC ([7]; BBRI Pa-No. 53, Table 7, read-out: MIC): 0.8 µg/mL | MIC ([7]; BBRI Pa-No. 54, Table 7, read-out: MIC): 0.8 µg/mL | MIC ([7]; BBRI Pa-No. 55, Table 7, read-out: MIC): 1.6 µg/mL | MIC ([7]; BBRI Pa-No. 56, Table 7, read-out: MIC): 1.6 µg/mL | MIC ([7]; BBRI Pa-No. 57, Table 7, read-out: MIC): 0.8 µg/mL | MIC ([7]; BBRI Pa-No. 58, Table 7, read-out: MIC): 1.6 µg/mL | MIC ([7]; BBRI Pa-No. 59, Table 7, read-out: MIC): 0.8 µg/mL | MIC ([7]; BBRI Pa-No. 60, Table 7, read-out: MIC): 0.8 µg/mL | MIC ([7]; BBRI Pa-No. 61, Table 7, read-out: MIC): 1.6 µg/mL | MIC ([7]; BBRI Pa-No. 62, Table 7, read-out: MIC): 100 µg/mL | MIC ([7]; BBRI Pa-No. 64, Table 7, read-out: MIC): 1.6 µg/mL | MIC ([7]; BBRI Pa-No. 65, Table 7, read-out: MIC): 1.6 µg/mL | MIC ([7]; BBRI Pa-No. 66, Table 7, read-out: MIC): 0.8 µg/mL | MIC ([7]; BBRI Pa-No. 67, Table 7, read-out: MIC): 1.6 µg/mL | MIC ([7]; BBRI Pa-No. 68, Table 7, read-out: MIC): 1.6 µg/mL | MIC ([7]; BBRI Pa-No. 69, Table 7, read-out: MIC): 3.1 µg/mL | MIC ([7]; BBRI Pa-No. 70, K-Ps102(CR-102), Table 7, read-out: MIC): 0.8 µg/mL | MIC ([7]; GN315, BBRI Pa-No. 27, GN315, Table 7, read-out: MIC): 0.4 µg/mL | MIC ([7]; GN4925, BBRI Pa-No. 44, GN4925, Table 7, read-out: MIC): 1.6 µg/mL | Mean % Relative Activity (SPBC = 100%) [8]: 1425% | ED50 [9]: 1.3 mg/kg | ED50 [10]: 9.3 mg/kg

— patent US4138554A, “7-[D-α-(4-Hydroxy-1,5-naphthyridine-3-carboxamido)-α-phenyl (and p-hydroxyphenyl)acetamido]-3-carbamoyloxymethyl-3-cephem-4-carboxylic acids” (priority 1977, dated 1979)
